One data set addresses T1, hNK1R (Homo sapiens, UniProt P25103).
T1 construct: expressed in transfected cells; host or cells: CHO-K1 (hNK1-CHO), gift from Dr. Attila Keresztes and Dr. John M. Streicher
The experiment in a line: Saturation binding assay of 177Lu-radioconjugates on CHO-NK1R cells. The note with it: for Kd: read-out: Kd ± SD. The protocol:
The saturation binding studies of ^177Lu-radioconjugates were performed using transfected CHO-NK1R cell line, and all radioconjugates were obtained according to the common labelling protocol given above with the same specific activity. In brief, 10^5 cells per well were seeded into 24-well plates and incubated 24 h before the experiment. […] After that time, the assay medium was collected into plastic tubes and cells were washed twice with cold Dulbecco’s PBS. Subsequently, cells were lysed using 1M NaOH and collected into plastic tubes for radioactivity measurement. The radioactivity of collected medium and lysed cells was measured using a Wizard^2 2-Detector Gamma Counter (PerkinElmer, Waltham, MA, USA) with the energy window of 50–500 keV. The study data came from three independent experiments carried out in duplicate, while the results, presented as the Kd and BMAX with SD, were calculated using a total and nonspecific binding (one site) nonlinear regression curve fit (GraphPad Prism version 8.0, GraphPad, San Diego, CA, USA).

The nature of a further data set: physchem. It counts as physicochemical. The protocol:
A lipophilicity study was also performed right after the SPE method purification and ethanol evaporation. For each DOTA radioconjugate, the lipophilicity value was estimated as the logarithm of the distribution coefficient (D) based on the ratio of the radioactivity of the organic phase to the radioactivity of the aqueous phase in the n-octanol/PBS (pH 7.40) system. Simultaneously, the stability of the studied radioconjugate during the experiment was verified through the HPLC analysis of the aqueous phase.
A solution of isolated radioconjugate (approximately 0.5 MBq for ^177Lu-radioconjugates or 5 MBq for ^68Ga-radioconjugates) in 500 µL of 0.1 M PBS buffer (pH 7.40) and 500 µL of n-octanol was vigorously stirred and centrifuged (13,500 rpm for 5 min) to separate the immiscible phases. Then, the radioactivity of samples from both phases were measured using a well-type NaI(Tl) detector. The distribution coefficient, D, was calculated dividing the radioactivity of the radioconjugate in the organic phase to that in the aqueous phase. Each experiment was performed in triplicate and averaged. In parallel, the aqueous phases were analysed by HPLC to confirm the stability of studied radioconjugate during the experiment period. The lipophilicity value of each radioconjugates was expressed as the logarithm of its D value.

A further data set has as its system hNK1R Q165A mutant. As to conditions: read-out: IC50 Q165A mutant hNK1R; Gln165Ala mutation; cited from earlier work.
In the next data set the test system is hNK1R His197Ala mutation. The note with it: versus wild type; cited from earlier work.
The next data set relates to hNK1R His197Phe mutation. The note with it: versus wild type; cited from earlier work.
Where [1] appears, read: ratio to [177Lu]Lu-DOTA-[Thi8,Met(O2)11]SP.
The mark [2] stands for this setting: pH 7.4, logD7.4 (Mean ± SD) 177Lu-.
Setting [3] is: pH 7.4, logD7.4 (Mean ± SD) 68Ga-.

The Kd is the concentration at which binding is half-saturated. The term logD denotes lipophilicity at a set pH, counting ionised and neutral species. Read a low logD as a more hydrophilic compound. In general, IC50 refers to the concentration at which inhibition is half-maximal.

SMILES strings stand for the structures. “And” between values parts separate entries of the source, which are not always exact repeats. Identical values can stand only once. Like-named read-outs stand apart in the source and are kept apart here. Square brackets hold non-standard residues; d marks the D form. Peptide text beside a SMILES is read from it. * marks the point of attachment. DOTA = O=C(O)CN1CCN(CC(=O)O)CCN(CC(=O)*)CCN(CC(=O)O)CC1; Met(O2) = CS(=O)(=O)CC[C@H](N)C(=O)O; 2Thi = N[C@@H](Cc1cccs1)C(=O)O

T1 sequence (P25103 whole entry): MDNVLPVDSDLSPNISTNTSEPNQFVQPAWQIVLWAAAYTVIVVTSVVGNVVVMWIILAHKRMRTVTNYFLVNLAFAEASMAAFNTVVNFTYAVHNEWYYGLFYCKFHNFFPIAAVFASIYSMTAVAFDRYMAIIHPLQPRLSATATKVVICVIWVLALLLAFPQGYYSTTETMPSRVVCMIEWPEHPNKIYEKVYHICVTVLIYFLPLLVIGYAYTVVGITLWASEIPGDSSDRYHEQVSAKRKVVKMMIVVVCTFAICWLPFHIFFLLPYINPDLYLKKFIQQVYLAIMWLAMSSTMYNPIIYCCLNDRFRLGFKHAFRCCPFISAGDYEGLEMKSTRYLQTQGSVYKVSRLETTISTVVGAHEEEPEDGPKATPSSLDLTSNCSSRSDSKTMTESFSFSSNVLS

Turning to `O=C(O)CN1CCN(CC(=O)O)CCN(CC(=O)N[C@@H](Cc2c[nH]c3ccccc23)C(=O)OCc2cc(C(F)(F)F)cc(C(F)(F)F)c2)CCN(CC(=O)O)CC1` [[^177Lu]Lu-1d, metal not drawn], the “BMAX ± SD” value at hNK1R (CHO-NK1R cells, 60 min at 37 °C) is 0.762 nM and 0.762 ± 0.046 nM. In addition, on hNK1R (CHO-NK1R cells, 60 min at 37 °C, aprepitant as blocker), the dissociation constant (Kd) turned out to be 6.98 ± 0.69 nM. Further, at hNK1R (setting [1]), the “BMAX Ratio to SP” value is given as 0.82 and the “Kd Ratio to SP” value is on record as 1.13. This molecule gave a logD in “physchem” (setting [2]) of 0.4 ± 0.004. Turning to `O=C(O)CN1CCN(CC(=O)O)CCN(CC(=O)NCCCCCC(=O)N[C@@H](Cc2c[nH]c3ccccc23)C(=O)OCc2cc(C(F)(F)F)cc(C(F)(F)F)c2)CCN(CC(=O)O)CC1` [[^177Lu]Lu-4d, metal not drawn], the pH-dependent lipophilicity (logD) in “physchem” (setting [2]) came to 0.866 ± 0.019. With `CC(C)C[C@H](NC(=O)CNC(=O)[C@H](Cc1cccs1)NC(=O)[C@H](Cc1ccccc1)NC(=O)[C@H](CCC(N)=O)NC(=O)[C@H](CCC(N)=O)NC(=O)[C@@H]1CCCN1C(=O)[C@H](CCCCN)NC(=O)[C@@H]1CCCN1C(=O)[C@H](CCCNC(=N)N)NC(=O)CN1CCN(CC(=O)O)CCN(CC(=O)O)CCN(CC(=O)O)CC1)C(=O)N[C@@H](CCS(C)(=O)=O)C(N)=O` [[^177Lu]Lu-DOTA-[Thi^8,Met(O2)^11]SP, metal not drawn, reference compound] ({DOTA}-RPKPQQF[2Thi]GL[Met(O2)]-NH2; N-terminus and C-terminus assumed), the equilibrium dissociation constant (Kd) at hNK1R is 6.15 ± 0.64 nM. Take `CC(=O)N[C@@H](Cc1c[nH]c2ccccc12)C(=O)OCc1cc(C(F)(F)F)cc(C(F)(F)F)c1` [Compound 1c, 3,5-bis(trifluoromethyl)benzyl acetyl-L-tryptophanate]: in the data set on hNK1R Q165A mutant, the IC50 was 8.1 nM. For the same molecule, in the data set on hNK1R His197Ala mutation, the “decrease of affinity with His197Ala mutation” value is “ten-fold”. Also, the “effect of His197Phe mutation on affinity” value in the data set with hNK1R His197Phe mutation is “no effect”. `C[C@@H](NC(=O)CN1CCN(CC(=O)O)CCN(CC(=O)O)CCN(CC(=O)O)CC1)C(=O)N[C@H](C)C(=O)N[C@@H](Cc1c[nH]c2ccccc12)C(=O)OCc1cc(C(F)(F)F)cc(C(F)(F)F)c1` [[^68Ga]Ga-3d, metal not drawn] returned a logD in the data set “physchem” (setting [3]) of -0.259 ± 0.017. For the molecule `O=C(O)CN1CCN(CC(=O)O)CCN(CC(=O)N[C@@H](Cc2c[nH]c3ccccc23)C(=O)OCc2cc(C(F)(F)F)cc(C(F)(F)F)c2)CCN(CC(=O)O)CC1` [[^68Ga]Ga-1d, metal not drawn], the logD in the data set “physchem” (setting [3]) was -0.085 ± 0.015. Regarding `C[C@@H](NC(=O)CN1CCN(CC(=O)O)CCN(CC(=O)O)CCN(CC(=O)O)CC1)C(=O)N[C@@H](Cc1c[nH]c2ccccc12)C(=O)OCc1cc(C(F)(F)F)cc(C(F)(F)F)c1` [[^177Lu]Lu-2d, metal not drawn], the logD in “physchem” (setting [2]) is 0.704 ± 0.005. The molecule `C[C@@H](NC(=O)CN1CCN(CC(=O)O)CCN(CC(=O)O)CCN(CC(=O)O)CC1)C(=O)N[C@@H](Cc1c[nH]c2ccccc12)C(=O)OCc1cc(C(F)(F)F)cc(C(F)(F)F)c1` [[^68Ga]Ga-2d, metal not drawn] had a logD in “physchem” (setting [3]) of -0.06 ± 0.02.

The values are drawn from article PMC8835841, “Novel NK1R-Targeted ^68Ga-/^177Lu-Radioconjugates with Potential Application against Glioblastoma Multiforme: Preliminary Exploration of Structure–Activity Relationships” (International Journal of Molecular Sciences, 2022).
